Reference: ChEMBL document CHEMBL1201862, “PubChem BioAssay data set” (2004)
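Briefly, cells in 96-well plates were exposed to five compound concentrations for 48 h, and endpoints were estimated by linear interpolation. GI50 is the concentration that inhibits growth by half.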 Activity calls are given as the source filed them. Rule as the data show it: active = GI50 up to about 1.1 µM and inactive = higher.

Legend:
Assay in all cases: inhibition of tumour cell growth, NCI panel, 48 h
Hs-578T = system: Hs-578T
HOP-62 = system: HOP-62
MDA-MB-231 = system: MDA-MB-231
K562 = system: K562
A549 = system: A549
RPMI-8226 = system: RPMI-8226
UACC-62 = system: UACC-62
OVCAR-4 = system: OVCAR-4
MOLT-4 = system: MOLT-4
MDA-MB-435 = system: MDA-MB-435
TK-10 = system: TK-10
SNB-19 = system: SNB-19
NCI/ADR-RES = system: NCI/ADR-RES
EKVX = system: EKVX
OVCAR-8 = system: OVCAR-8
UACC-257 = system: UACC-257
ACHN = system: ACHN
HCT-116 = system: HCT-116
MDA-N = system: MDA-N
SR = system: SR

SMILES	GI50 (Hs-578T)	GI50 (HOP-62)	GI50 (MDA-MB-231)	GI50 (K562)	GI50 (A549)	GI50 (RPMI-8226)	GI50 (UACC-62)	GI50 (OVCAR-4)	GI50 (MOLT-4)	GI50 (MDA-MB-435)	GI50 (TK-10)	GI50 (SNB-19)	GI50 (NCI/ADR-RES)	GI50 (EKVX)	GI50 (OVCAR-8)	GI50 (UACC-257)	GI50 (ACHN)	GI50 (HCT-116)	GI50 (MDA-N)	GI50 (SR)
C/C(=N/NC(=S)Nc1cccc(Cl)c1)c1cccc(/C(C)=N\NC(=S)Nc2cccc(Cl)c2)n1	> 23.8 µM (inactive)	1.15 µM (inactive)	2.69 µM (inactive)	2.62 µM (inactive)	2.96 µM (inactive)	3.05 µM (inactive)	2.1 µM (inactive)	5.14 µM (inactive)	2.69 µM (inactive)	6.87 µM (inactive)	2.02 µM (inactive)	19.4 µM (inactive)	1.09 µM (active)	3.44 µM (inactive)	0.902 µM (active)	4.66 µM (inactive)	0.813 µM (active)	2.4 µM (inactive)	20.2 µM (inactive)	0.828 µM (active)
C=CCOC(=O)C1C2OC3(C(C(=O)OC)=C2C(=O)OC)c2ccccc2CCC13 (stereo not given)	> 10 µM (inactive)	> 10 µM (inactive)	> 10 µM (inactive)	> 10 µM (inactive)	> 10 µM (inactive)	> 10 µM (inactive)	> 10 µM (inactive)	> 10 µM (inactive)	> 10 µM (inactive)	> 10 µM (inactive)	> 10 µM (inactive)	> 10 µM (inactive)	> 10 µM (inactive)	> 10 µM (inactive)	> 10 µM (inactive)	> 10 µM (inactive)	> 10 µM (inactive)	> 10 µM (inactive)	> 10 µM (inactive)	> 10 µM (inactive)
C1CN1c1nc(N2CC2)nc(N2CC2)n1	26.5 µM (inactive)	1.97 µM (inactive)	20.2 µM (inactive)	10.4 µM (inactive)	4.29 µM (inactive)	12.5 µM (inactive)	1.84 µM (inactive)	16.2 µM (inactive)	0.495 µM (active)	12.6 µM (inactive)	24 µM (inactive)	6.65 µM (inactive)	5.42 µM (inactive)	19.5 µM (inactive)	7.55 µM (inactive)	10.7 µM (inactive)	0.944 µM (active)	8.55 µM (inactive)	12.1 µM (inactive)	0.5 µM (active)
